In brackets after ≈: the same amount, converted by molar mass. Numbered stars: 1 amine (or outer) side, 2 acyl side, 3 side chain; on linkers, the order of the positions; unused ones are H or OH. Square brackets hold non-standard residues; d marks the D form. Peptide text beside a SMILES is read from it. ξ: configuration not given here. X6 = N=C1NCC(CC(N[*:1])C(=O)[*:2])N1C1OC(CO)C(O)C(O)C1O; Tyr(3-NO2) = N[CH](Cc1ccc(O)c([N+](=O)[O-])c1)C(=O)O; X7 = N=C1NCC(CC(N[*:1])C(=O)[*:2])N1; ξPhe(βξ-Me) = CC(c1ccccc1)C(N)C(=O)O
Key:
Experiment in all cases: In vitro antibacterial evaluation: minimum inhibitory concentration (MIC), broth dilution method
Type in all cases: cell-based
Conditions in all cases: broth dilution, 18 hours at 35° C.
[1] = test system: Enterococcus sp.
Procedure, shortened: (§1)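 Test strains, among them recent clinical isolates carrying methicillin, penicillin and/or vancomycin resistance, were inoculated at 5×10^5 CFU/mL. A broth dilution series spanning 64-0.06 μg/mL in Muller-Hinton II […] (NCCLS M7-A2) defined the MIC as the lowest growth-inhibiting concentration.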

[2] = test system: Streptococcus sp.
Procedure, shortened: as §1

[3] = test system: Escherichia coli

Question: `CC(c1ccccc1)C1NC(=O)CNC(=O)C(CO)NC(=O)C(CC2CNC(=N)N2C2OC(CO)C(O)C(O)C2O)NC(=O)C(CC2CNC(=N)N2)NC(=O)C(Cc2ccc(O)c([N+](=O)[O-])c2)NC1=O` (stereo not drawn) [Example 10, Cyclo[3-(2-iminoimidazolidin-4-yl)alanyl-3-(3-hexopyranosyl-2-iminoimidazolidin-4-yl)-alanylserylglycyl-β-methylphenylalanyl-3-nitrotyrosyl]] (cyclo(G[ξPhe(βξ-Me)][Tyr(3-NO2)][X7][X6]S); configuration not given here) was tested. Which “MIC Enterococcus avium (GC 4558)” value [1] did it give?
Answer: Its value is greater than 64 µg/mL.

Question: What about the “MIC Enterococcus faecalis (ATCC 29212)” value [1] of the same compound?
Answer: Its value is greater than 64 µg/mL.

Question: What about the “MIC Enterococcus faecalis (GC 2242)” value [1] of the same compound?
Answer: The value was greater than 64 µg/mL.

Question: What about the “MIC Enterococcus faecalis (GC 2691)” value [1] of the same compound?
Answer: The value was greater than 64 µg/mL.

Question: And the “MIC Enterococcus faecalis (GC 3059)” value [1]?
Answer: Its value is greater than 64 µg/mL.

Question: And the “MIC Enterococcus faecalis (GC 4552)” value [1]?
Answer: Its value is greater than 64 µg/mL.

Question: What about the “MIC Enterococcus faecalis (GC 4553)” value [1] of the same compound?
Answer: Its value is greater than 64 µg/mL.

Question: And the “MIC Enterococcus faecalis (GC 4554)” value [1]?
Answer: The value was greater than 64 µg/mL.

Question: And the “MIC Enterococcus faecalis (GC 6189)” value [1]?
Answer: The value was greater than 64 µg/mL.

Question: And the “MIC Enterococcus faecium (GC 2243)” value [1]?
Answer: Its value is greater than 64 µg/mL.

Question: And the “MIC Enterococcus faecium (GC 4556)” value [1]?
Answer: Its value is greater than 64 µg/mL.

Question: And the “MIC Enterococcus faecium (GC 4557)” value [1]?
Answer: The value was greater than 64 µg/mL.

Question: And the “MIC Streptococcus agalactiae (GC 4564)” value [2]?
Answer: The value was greater than 64 µg/mL.

Question: And the “MIC Streptococcus pneumoniae (ATCC 6301)” value [2]?
Answer: The value was greater than 64 µg/mL.

Question: What about the “MIC Streptococcus pneumoniae (GC 1894)” value [2] of the same compound?
Answer: The value was greater than 64 µg/mL.

Question: And the “MIC Streptococcus pneumoniae (GC 4565)” value [2]?
Answer: Its value is greater than 64 µg/mL.

Question: What about the “MIC Streptococcus pyogenes (GC 4563)” value [2] of the same compound?
Answer: Its value is greater than 64 µg/mL.

Question: And the “MIC Escherichia coli (ATCC 25922)” value [3]?
Answer: The value was greater than 64 µg/mL.

Question: What about the “MIC Escherichia coli (GC 4559)” value [3] of the same compound?
Answer: Its value is greater than 64 µg/mL.

Question: What about the “MIC Escherichia coli (GC 4560)” value [3] of the same compound?
Answer: Its value is greater than 64 µg/mL.

Question: How did the “MIC Enterococcus faecium (GC 4557)” value ([1]; Enterococcus faecium (GC 4557)) turn out when `CC(c1ccccc1)C1NC(=O)CNC(=O)C(CO)NC(=O)C(C(O)C2CNC(=N)N2C2OC(CO)C(O)C(O)C2O)NC(=O)C(C(O)C2CNC(=N)N2)NC(=O)C(Cc2ccc(O)c(NC=O)c2)NC1=O` (stereo not drawn) [Example 18, Cyclo[glycyl-β-methylphenylalanyl-3-formamidotyrosyl-3-(2-iminoimidazolidin-4-yl)seryl-3-(3-hexopyranosyl-2-iminoimidazolidin-4-yl)serylseryl]] was run?
Answer: The value was 64 µg/mL (≈ 63.1 µM).

Question: What about the “MIC Enterococcus faecium (GC 4557)” value [1] of the same compound?
Answer: The value was 64 µg/mL (≈ 63.1 µM).

Question: What about the “MIC Streptococcus pneumoniae (GC 1894)” value ([2]; Streptococcus pneumoniae (GC 1894)) of the same compound?
Answer: Its value is 64 µg/mL (≈ 63.1 µM).

Question: What about the “MIC Streptococcus pneumoniae (GC 1894)” value [2] of the same compound?
Answer: Its value is 64 µg/mL (≈ 63.1 µM).

Question: What about the “MIC Escherichia coli (ATCC 25922)” value [3] of the same compound?
Answer: The value was 64 µg/mL (≈ 63.1 µM).

Question: And the “MIC Escherichia coli (GC 4559)” value [3]?
Answer: The value was 32 µg/mL (≈ 31.6 µM).

Question: And the “MIC Escherichia coli (GC 4560)” value [3]?
Answer: The value was 16 µg/mL (≈ 15.8 µM).

Reference: patent publication US8247211B2, “Glycopeptide antibiotics” (American Cyanamid Company, priority 2001, dated 2012)
